In patent US8933228B2, “Respiratory formulations and compounds for use therein” (Respivert, Ltd., priority 2010, dated 2015):

Tests used:
p38 MAPK alpha (MAPK14) = p38 MAPK alpha (MAPK14) (Homo sapiens (Human), UniProt Q16539); experiment: Enzyme inhibition assay (FRET, Z-LYTE), p38 MAPK alpha via MAPKAP-K2 activation; type: biochemical; conditions: read-out: Enzyme Profile: IC50 Values p38α
Description: (§1) The enzyme inhibitory activity of test compounds was determined by fluorescence resonance energy transfer (FRET) using synthetic peptides labelled with both donor and acceptor fluorophores (Z-LYTE, Invitrogen). Recombinant, phosphorylated p38 MAPK γ (MAPK12:Millipore) was diluted in HEPES buffer, mixed with compound at the desired final concentrations and incubated for 2 hr at RT. The FRET peptide (2 μM) and ATP (100 μM) were next added to the enzyme/compound mixture and incubated for 1 hr. Development reagent (protease) was added for 1 hr prior to detection in a fluorescence microplate reader. The site-specific protease only cleaves non-phosphorylated peptide and eliminates the FRET signal. Phosphorylation levels of each reaction were calculated using the ratio of coumarin emission (donor) over fluorescein emission (acceptor) with high ratios indicating high phosphorylation levels and low ratios indicating low phosphorylation levels.
For p38 MAPK alpha (MAPK14: Invitrogen), enzyme activity was evaluated indirectly by determining activation/phosphorylation of the down-stream molecule, MAPKAP-K2. The p38 MAPK a protein was mixed with compound for 2 hr at RT. […] Development reagent was then added and the mixture incubated for 1 hr before detection by fluorescence completed the assay protocol.
The enzyme inhibitory activity of compound was determined by fluorescence resonance energy transfer (FRET) using synthetic peptides labelled with both donor and acceptor fluorophores (Z′-LYTE, Invitrogen).

p38 MAPK γ (MAPK12) = p38 MAPK γ (MAPK12) (Homo sapiens (Human), UniProt P53778); experiment: Enzyme inhibition assay (FRET, Z-LYTE), p38 MAPK gamma; type: biochemical; conditions: read-out: Enzyme Profile: IC50 Values p38γ
Description: as §1

HCK enzyme = HCK enzyme (Homo sapiens (Human), UniProt P08631); experiment: HCK enzyme inhibition assay (FRET, Z'-LYTE); type: biochemical; conditions: read-out: Enzyme Profile: IC50 Values HCK
cSrc enzyme = cSrc enzyme (Homo sapiens (Human), UniProt P12931); experiment: c-SRC enzyme inhibition assay (FRET, Z'-LYTE); type: biochemical; conditions: read-out: Enzyme Profile: IC50 Values cSrc
[1] = test system: TNFα release in THP-1 cells; experiment: LPS-induced TNFα release in THP-1 cells; type: cell-based; conditions: Homo sapiens; THP-1 cells, LPS 3 μg/mL, 4 hr; read-out: THP1 (LPS) TNFα IC50
Description: The inhibition of TNFα production was calculated at each concentration by comparison with vehicle control.

[2] = test system: TNFα release in d-U937 cells; experiment: LPS-induced TNFα release in d-U937 cells; type: cell-based; conditions: Homo sapiens, dU937, LPS 0.1 μg/mL, 4 hr, relative to 10 μg/mL BIRB796, read-out: d-U937 (LPS) TNFα REC50
Description: (§2) U937 cells, a human monocytic cell line, were differentiated to macrophage-type cells by incubation with phorbol myristate acetate (PMA; 100 ng/mL) for 48 to 72 hr, whereupon the cells become adherent. […] Coli: O111:B4, Sigma) for 4 hr. The supernatant was collected for determination of TNFα and IL-8 concentrations by sandwich ELISA (Duo-set, R&D systems). […] The relative 50% effective concentration (REC50) was determined from the resultant concentration-response curve. The inhibition of IL-8 production was calculated at each concentration of test compound by comparison with vehicle control.

[3] = test system: IL-8 release in d-U937 cells; experiment: LPS-induced IL-8 release in d-U937 cells; type: cell-based; conditions: Homo sapiens, dU937; d-U937 cells, LPS 0.1 μg/mL, 4 hr; read-out: d-U937 (LPS) IL-8 IC50
Description: as §2

[4] = test system: ICAM-1 expression in BEAS2B cells; experiment: Poly I:C-induced ICAM-1 induction in BEAS2B cells; type: cell-based; conditions: Homo sapiens, BEAS-2B; BEAS2B cells, poly I:C 1 μg/mL, 18 hr; read-out: BEAS2B (polyIC) ICAM1 IC50
Description: Poly I:C (1 μg/mL) (Invivogene Ltd., San Diego, Calif.) was transfected into BEAS2B cells (human bronchial epithelial cells, ATCC) with Oligofectamine (Invitrogen, Carlsbad, Calif.). Cells were pre-incubated with final concentrations of test compounds for 2 hr and the level of ICAM1 expression on the cell surface was determined by cell-based ELISA. […] The cells were washed with PBS-Tween and incubated with the secondary antibody (HRP-conjugated anti-rabbit IgG, Dako Ltd., Glostrup, Denmark).

HRV16 = experiment: Rhinovirus-titre assay; type: cell-based, human rhinovirus; conditions: HRV16; for inhibition at 0.04 µg/mL: Human rhinovirus sp., cell not marked b, test compounds 0.04 μg/mL per method (footnote b, 0.2 μg/mL), read-out: HRV titre (inhibitory %): % inhibition observed vs. HRV16 infection control; for NBEC (HRV) HRV titre Relative anti-viral activity: at 0.04 μg/mL vs. pleconaril at 0.1 μg/mL
Description: MRC5 cells (human lung fibroblast, ATCC) were infected with 1 MOI (multiplicity of infection of 1.0) of HRV16 and incubated for 1 hr at 33° C. with gentle shaking to stimulate adsorption. The cells were then washed with PBS, fresh media was added and the cells were incubated for a further 96 hr. The supernatant was collected and 10-fold serial dilutions of virus containing supernatant were prepared. All titrations were performed by infecting confluent Hela cell monolayers with serially diluted supernatant (10^−1-10^−5) and assessing the cytopathic effect by visual inspection 4 days after infection. The amount of virus required to infect 50% of Hela cells was calculated in each treatment as TCID50. Test compounds (0.04 μg/mL) were added 2 hr before HRV infection and 1 hr after infection when non-infected HRV was washed out. The anti-HRV activity of each test compound was determined as the difference of the log TCID50 of HRV16 in the presence of the compound with the log TCID50 of HRV16 in the absence of compound. […]

[5] = test system: Differentiated U937 cells; experiment: MTT assay: cell viability; type: cell-based, human; conditions: 1 μg/ml; for d-U937 MTT Assay 4 h: 5% FCS; for d-U937 MTT Assay 24 h: 10% FCS
Description: Differentiated U937 cells were pre-incubated with each test compound under two protocols: the first for 4 hr in 5% FCS and the second in 10% FCS for 24 h. The supernatant was replaced with 200 μL of new media and 10 μL of MTT stock solution (5 mg/mL) was added to each well. After incubation for 1 hr the media were removed, 200 μL of DMSO was added to each well and the plates were shaken lightly for 1 hr prior to reading the absorbance at 550 nm. The percentage loss of cell viability was calculated for each well relative to vehicle (0.5% DMSO) treatment. Consequently an apparent increase in cell viability for drug treatment relative to vehicle is tabulated as a negative percentage.

| Structure (SMILES) | IC50 (p38 MAPK alpha (MAPK14)) | IC50 (p38 MAPK γ (MAPK12)) | IC50 (HCK enzyme) | IC50 (cSrc enzyme) | IC50 [1] | EC50 [2] | IC50 [3] | IC50 [4] | inhibition at 0.04 µg/mL (HRV16) | NBEC (HRV) HRV titre Relative anti-viral activity (HRV16) | d-U937 MTT Assay 4 h [5] | d-U937 MTT Assay 24 h [5] |
| --- | --- | --- | --- | --- | --- | --- | --- | --- | --- | --- | --- | --- |
| Cc1ccc(-n2nc(C(C)(C)C)cc2NC(=O)Nc2ccc(Oc3ccnc4[nH]c(=O)[nH]c34)c3ccccc23)cc1 [Example 1, 1-(3-tert-butyl-1-p-tolyl-1H-pyrazol-5-yl)-3-(4-(2-oxo-2,3-dihydro-1H-imidazo [4,5-b]pyridin-7-yloxy)naphthalen-1-yl) urea] | 17 nM | 74 nM | < 2 nM | 7 nM | 1.6 nM | 0.2 nM | 19 nM | 2.7 nM | 94% | 0.1 | − (− and + indicate the result is below and above the no significant effect threshold, respectively (<30% inhibition at a concentration of 1 μg/ml)) | − (− and + indicate the result is below and above the no significant effect threshold, respectively (<30% inhibition at a concentration of 1 μg/ml)) |
| CC(C)(C)c1cc(NC(=O)Nc2ccc(Oc3ccnc4[nH]c(=O)[nH]c34)c3ccccc23)n(-c2ccccc2)n1 [Example 2, 1-(3-tert-butyl-1-phenyl-1H-pyrazol-5-yl)-3-(4-(2-oxo-2,3-dihydro-1H-imidazo [4,5-b]pyridin-7-yloxy)naphthalen-1-yl) urea] | 5 nM | 67 nM | < 2 nM | 36 nM | 1.4 nM | 3 nM | 7.5 nM | 9.8 nM | 60% | 1 | − (− and + indicate the result is below and above the no significant effect threshold, respectively (<30% inhibition at a concentration of 1 μg/ml)) | − (− and + indicate the result is below and above the no significant effect threshold, respectively (<30% inhibition at a concentration of 1 μg/ml)) |
| Cc1ccc(-n2nc(C(C)(C)C)cc2NC(=O)Nc2ccc(Oc3ccnc4[nH]c(=O)n(C)c34)c3ccccc23)cc1 [Example 3, 1-(3-tert-butyl-1-p-tolyl-1H-pyrazol-5-yl)-3-(4-(1-methyl-2-oxo-2,3-dihydro-1H-imidazo[4,5-b]pyridin-7-yloxy)naphthalen-1-yl)urea] | 1 nM | 24 nM | 2 nM | 4 nM | 0.7 nM | 1.1 nM | 17 nM | 4.1 nM | 36% | 0.2 | − (− and + indicate the result is below and above the no significant effect threshold, respectively (<30% inhibition at a concentration of 1 μg/ml)) | − (− and + indicate the result is below and above the no significant effect threshold, respectively (<30% inhibition at a concentration of 1 μg/ml)) |

Further lines, with some results ahead:

| IC50 (p38 MAPK alpha (MAPK14)) | IC50 (p38 MAPK γ (MAPK12)) | IC50 (HCK enzyme) | IC50 (cSrc enzyme) | IC50 [1] | EC50 [2] | IC50 [3] | Structure (SMILES) | IC50 [4] | inhibition at 0.04 µg/mL (HRV16) | NBEC (HRV) HRV titre Relative anti-viral activity (HRV16) | d-U937 MTT Assay 4 h [5] | d-U937 MTT Assay 24 h [5] |
| --- | --- | --- | --- | --- | --- | --- | --- | --- | --- | --- | --- | --- |
| 18 nM | 214 nM | 7 nM | 0.9 nM | 185 nM | 171 nM | 378 nM | CC(C)(C)c1cc(NC(=O)Nc2ccc(Oc3ccnc4[nH]c(=O)[nH]c34)c3ncccc23)n(-c2ccccc2)n1 [Example 4, 1-(3-tert-butyl-1-phenyl-1H-pyrazol-5-yl)-3-(8-(2-oxo-2,3-dihydro-1H-imidazo [4,5-b]pyridin-7-yloxy)quinolin-5-yl) urea] | 581 nM | 60% | 0.7 | − (− and + indicate the result is below and above the no significant effect threshold, respectively (<30% inhibition at a concentration of 1 μg/ml)) | − (− and + indicate the result is below and above the no significant effect threshold, respectively (<30% inhibition at a concentration of 1 μg/ml)) |
| 7 nM | 23 nM | 4 nM | 5 nM | 0.6 nM | 0.6 nM | 4.6 nM | COc1ccc(-n2nc(C(C)(C)C)cc2NC(=O)Nc2ccc(Oc3ccnc4[nH]c(=O)n(C)c34)c(Cl)c2Cl)cc1 [Example 13, 1-(3-(tert-Butyl)-1-(4-methoxyphenyl)-1H-pyrazol-5-yl)-3-(2,3-dichloro-4-((1-methyl-2-oxo-2,3-dihydro-1H-imidazo[4,5-b]pyridin-7-yl)oxy)phenyl)urea] | 6.2 nM | – | – | − (− and + indicate the result is below and above the no significant effect threshold, respectively (<30% inhibition at a concentration of 1 μg/ml)) | + (− and + indicate the result is below and above the no significant effect threshold, respectively (<30% inhibition at a concentration of 1 μg/ml)) |
| 7 nM | 29 nM | 3 nM | 13 nM | 75 nM | 1.9 nM | 1.6 nM | CNS(=O)(=O)Cc1ccc(-n2nc(C(C)(C)C)cc2NC(=O)Nc2ccc(Oc3ccnc4[nH]c(=O)cnc34)c3ccccc23)cc1 [Example 26, 1-(4-(3-(tert-butyl)-5-(3-(4-((3-oxo-3,4-dihydropyrido[2,3-b]pyrazin-8-yl)oxy)naphthalen-1-yl)ureido)-1H-pyrazol-1-yl)phenyl)-N-methylmethanesulfonamide] | 207 nM | – | – | − (− and + indicate the result is below and above the no significant effect threshold, respectively (<30% inhibition at a concentration of 1 μg/ml)) | − (− and + indicate the result is below and above the no significant effect threshold, respectively (<30% inhibition at a concentration of 1 μg/ml)) |
